target: T1, DPP-IV (Homo sapiens, UniProt P27487); assay: Inhibition of DPP-IV peptidase activity, continuous fluorimetric assay (Gly-Pro-AMC cleavage); format: biochemical; settings: 16 μM Gly-Pro-AMC, pH 7.4, 25° C., 1% DMSO
T1 construct: Soluble human DPP-IV lacking the transmembrane anchor (Gly31-Pro766); Pre-Pro-alpha-mating factor leader (secretion signal) (N, cleaved yes); made in house
Method: Inhibition of DPP-IV peptidase activity was monitored with a continuous fluorimetric assay. This assay is based on the cleavage of the substrate Gly-Pro-AMC (Bachem) by DPP-IV, releasing free AMC. The assay is carried out in 96-well microtiterplates. In a total volume of 100 μL, compounds are preincubated with […] employing a buffer containing 10 mM Hepes, 150 mM NaCl, 0.005% Tween 20 (pH 7.4). […] The final concentration of DMSO is 1%. The inhibitory potential of the compounds were determined.
Soluble human DPP-IV lacking the transmembrane anchor (Gly31-Pro766) was expressed in a recombinant YEAST-strain as Pre-Pro-alpha-mating fusion.

T1 sequence (P27487 31-766): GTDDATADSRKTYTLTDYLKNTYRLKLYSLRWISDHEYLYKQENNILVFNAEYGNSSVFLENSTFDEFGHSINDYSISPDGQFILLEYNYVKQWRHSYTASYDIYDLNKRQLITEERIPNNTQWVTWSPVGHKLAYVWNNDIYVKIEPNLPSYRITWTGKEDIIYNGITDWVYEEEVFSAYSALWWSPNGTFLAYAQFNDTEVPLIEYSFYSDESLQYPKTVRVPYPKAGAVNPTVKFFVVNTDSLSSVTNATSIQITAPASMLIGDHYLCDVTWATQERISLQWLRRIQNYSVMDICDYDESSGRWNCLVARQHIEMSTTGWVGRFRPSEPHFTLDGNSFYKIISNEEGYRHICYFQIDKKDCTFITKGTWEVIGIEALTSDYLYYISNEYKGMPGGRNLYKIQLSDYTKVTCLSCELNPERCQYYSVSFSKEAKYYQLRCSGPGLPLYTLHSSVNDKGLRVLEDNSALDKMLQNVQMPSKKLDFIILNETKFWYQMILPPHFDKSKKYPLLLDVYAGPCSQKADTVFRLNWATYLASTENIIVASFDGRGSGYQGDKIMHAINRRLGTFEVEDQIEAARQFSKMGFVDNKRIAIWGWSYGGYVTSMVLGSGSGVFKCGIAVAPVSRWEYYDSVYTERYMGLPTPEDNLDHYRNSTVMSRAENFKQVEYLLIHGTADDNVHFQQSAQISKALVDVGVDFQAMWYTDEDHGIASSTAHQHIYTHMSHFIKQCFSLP

| IC50 [nM] | SMILES |
| --- | --- |
| 101 to 1000 | N[C@@H](CC(=O)N1CCCC(CNC(=O)c2ccccc2)C1)Cc1ccccc1F (mixture of isomers) [Example 94, N-{1-[(3R)-Amino-4-(2-fluoro-phenyl)-butyryl]-piperidin-3-ylmethyl}-benzamide] |
| 1000 to 2000 | N[C@@H](CC(=O)N1CCCC(CO)C1)Cc1ccccc1F (mixture of isomers) [Example 105, 3-Amino-4-(2-fluoro-phenyl)-1-(3-hydroxymethyl-piperidin-1-yl)-butan-1-one] |
| < 100 | N[C@@H](CC(=O)N1CCC[C@H]1CNc1ccccc1)Cc1ccccc1F [Example 66, (3R)-Amino-4-(2-fluoro-phenyl)-1-[(2S)-phenylaminomethyl-pyrrolidin-1-yl]-butan-1-one] |
| 101 to 1000 | N[C@@H](CC(=O)N1CCC[C@H]1CN1CCCC1)Cc1cccc(Cl)c1 [Example 67] |
| < 100 | N#Cc1ccc(NC[C@@H]2CCCN2C(=O)C[C@H](N)Cc2ccccc2F)nc1 [Example 68, 6-({1-[3-Amino-4-(2-fluoro-phenyl)-butyryl]-pyrrolidin-2-ylmethyl}-amino)-nicotinonitrile] |
| 101 to 1000 | N[C@@H](CC(=O)N1CCC[C@H]1CNc1cnccn1)Cc1ccccc1F [Example 69] |
| < 100 | COc1ccc(S(=O)(=O)NC[C@@H]2CCCN2C(=O)C[C@H](N)Cc2ccccc2F)cc1OC [Example 78, N-{1-[3-Amino-4-(2-fluoro-phenyl)-butyryl]-pyrrolidin-2-ylmethyl}-3,4-dimethoxy-benzenesulfonamide] |
| < 100 | N[C@@H](CC(=O)N1CCC[C@H]1CNS(=O)(=O)c1cccc(F)c1)Cc1ccccc1F [Example 79] |
| < 100 | COc1ccc(S(=O)(=O)NC[C@@H]2CCCN2C(=O)C[C@H](N)Cc2ccccc2F)cc1 [Example 80] |
| < 100 | N[C@@H](CC(=O)N1CCC[C@H]1CNS(=O)(=O)c1ccc(Cl)cc1)Cc1ccccc1F [Example 81] |
| < 100 | N[C@@H](CC(=O)N1CCC[C@H]1CNS(=O)(=O)c1cc(Cl)ccc1Cl)Cc1ccccc1F [Example 82] |
| < 100 | N[C@@H](CC(=O)N1CCC[C@H]1CNS(=O)(=O)c1ccccc1F)Cc1ccccc1F [Example 83] |
| < 100 | N[C@@H](CC(=O)N1CCC[C@H]1CNS(=O)(=O)c1ccc(F)cc1)Cc1ccccc1F [Example 84] |
| < 100 | CS(=O)(=O)NC[C@@H]1CCCN1C(=O)C[C@H](N)Cc1ccccc1F [Example 85] |
| < 100 | N[C@@H](CC(=O)N1CCC[C@H]1CNC(=O)Nc1ccccc1)Cc1ccccc1F [Example 86, 1-{1-[(3R)-Amino-4-(2-fluoro-phenyl)-butyryl]-pyrrolidin-(2S)-ylmethyl}-3-phenyl-urea] |
| 101 to 1000 | N[C@@H](CC(=O)N1CCCC[C@H]1CNC(=O)c1ccccc1)Cc1ccccc1F [Example 87, N-{1-[(3R)-Amino-4-(2-fluoro-phenyl)-butyryl]-piperidin-(2S)-ylmethyl}-benzamide] |
| 101 to 1000 | N[C@@H](CC(=O)N1CCCC[C@H]1CNS(=O)(=O)c1ccccc1)Cc1ccccc1F [Example 88, N-{1-[(3R)-Amino-4-(2-fluoro-phenyl)-butyryl]-piperidin-(2S)-ylmethyl}-benzenesulfonamide] |
| 101 to 1000 | N[C@@H](CC(=O)N1CCCC(CNS(=O)(=O)c2ccccc2)C1)Cc1ccccc1F (stereo partly shown) [Example 89, N-{1-[3-Amino-4-(2-fluoro-phenyl)-butyryl]-piperidin-3-ylmethyl}-benzenesulfonamide] |
| 101 to 1000 | N[C@@H](CC(=O)N1CC(CNC(=O)c2ccccc2)C1)Cc1ccccc1F [Example 90, N-{1-[(3R)-Amino-4-(2-fluoro-phenyl)-butyryl]-azetidin-3-ylmethyl}-benzamide] |
| 101 to 1000 | N[C@@H](CC(=O)N1CC(CNS(=O)(=O)c2ccccc2)C1)Cc1ccccc1F [Example 91, N-{1-[3-Amino-4-(2-fluoro-phenyl)-butyryl]-azetidin-3-ylmethyl}-benzenesulfonamide] |
| 1000 to 2000 | N[C@@H](CC(=O)N1CC(COc2ccccc2)C1)Cc1ccccc1F [Example 92, 3-Amino-4-(2-fluoro-phenyl)-1-(3-phenoxymethyl-azetidin-1-yl)-butan-1-one] |
| 1000 to 2000 | N[C@@H](CC(=O)N1CC(COc2ccccn2)C1)Cc1ccccc1F [Example 93] |
| 101 to 1000 | N[C@@H](CC(=O)N1CCC[C@H]1CNc1nc(-c2ccccc2)no1)Cc1ccccc1F [Example 100, (3R)-Amino-4-(2-fluorophenyl)-1-{(2S)-[(3-phenyl-[1,2,4]oxadiazol-5-ylamino)-methyl]-pyrrolidin-1-yl}butan-1-one] |
| < 100 | N[C@@H](CC(=O)N1CCC[C@H]1CNc1nc(-c2ccccn2)no1)Cc1ccccc1F [Example 101, (3R)-Amino-4-(2-fluorophenyl)-1-{(2 S)-[(3-pyridin-2-yl-[1,2,4]oxadiazol-5-ylamino)-methyl]-pyrrolidin-1-yl}-butan-1-one] |
| < 100 | N[C@@H](CC(=O)N1CCC[C@H]1CNc1nc(-c2cccc(Cl)c2)no1)Cc1ccccc1F [Example 102] |
| 1000 to 2000 | N[C@@H](CC(=O)N1CCC[C@H]1CNc1nc(-c2cccc(F)c2)no1)Cc1ccccc1F [Example 103, (3R)-Amino-4-(2-fluorophenyl)-1-((2S)-{[3-(3-fluorophenyl)-[1,2,4]oxadiazol-5-ylamino]-methyl}-pyrrolidin-1-yl)-butan-1-one] |
| < 100 | CS(=O)(=O)c1ccc(-c2noc(NC[C@@H]3CCCN3C(=O)C[C@H](N)Cc3ccccc3F)n2)cc1 [Example 104, (3R)-Amino-4-(2-fluorophenyl)-1-((2S)-{[3-(4-methanesulphonylphenyl)-[1,2,4]oxadiazol-5-ylamino]-methyl}-pyrrolidin-1-yl)-butan-1-one] |

The next lines start with the compound.

| SMILES | IC50 [nM] |
| --- | --- |
| N[C@@H](CC(=O)N1CCC[C@H]1COCc1ccccc1)Cc1ccccc1F [Example 32, (3R)-Amino-1-[(2S)-benzyloxymethyl-pyrrolidin-1-yl]-4-(2-fluoro-phenyl)-butan-1-one] | 101 to 1000 |
| COC[C@@H]1CCCN1C(=O)C[C@H](N)Cc1ccccc1F [Example 33] | 101 to 1000 |
| N#Cc1ccc(OC[C@@H]2CCCN2C(=O)C[C@H](N)Cc2ccccc2F)cc1 [Example 34] | < 100 |
| N[C@@H](CC(=O)N1CCC[C@H]1COc1ccccc1)Cc1ccccc1F [Example 35] | < 100 |
| N#Cc1cccc(OC[C@@H]2CCCN2C(=O)C[C@H](N)Cc2ccccc2F)c1 [Example 36] | < 100 |
| N#Cc1ccccc1OC[C@@H]1CCCN1C(=O)C[C@H](N)Cc1ccccc1F [Example 37] | < 100 |
| N[C@@H](CC(=O)N1CCC[C@H]1COc1ccc(F)cc1)Cc1ccccc1F [Example 38] | < 100 |
| N[C@@H](CC(=O)N1CCC[C@H]1COc1ccccn1)Cc1ccccc1F [Example 39] | < 100 |
| N[C@@H](CC(=O)N1CCC[C@H]1COc1cccc(F)c1)Cc1ccccc1F [Example 40] | < 100 |
| N[C@@H](CC(=O)N1CCC[C@H]1COc1cccc(F)c1)Cc1cccc(Cl)c1 [Example 41] | < 100 |
| N[C@@H](CC(=O)N1CCC[C@H]1CNC(=O)c1ccccc1)Cc1ccc(F)cc1 [Example 44] | 101 to 1000 |
| N[C@@H](CC(=O)N1CCC[C@H]1CNC(=O)c1ccccc1)Cc1cccc(Cl)c1 [Example 45] | < 100 |
| N[C@@H](CC(=O)N1CCC[C@H]1CNC(=O)c1ccccc1)Cc1cccc(F)c1 [Example 46] | < 100 |
| N#Cc1cccc(C[C@@H](N)CC(=O)N2CCC[C@H]2CNC(=O)c2ccccc2)c1 [Example 47] | 101 to 1000 |
| N[C@@H](CC(=O)N1CCC[C@H]1CNC(=O)c1ccccc1)Cc1ccccc1Cl [Example 48] | < 100 |
| N[C@@H](CC(=O)N1CCC[C@H]1CNC(=O)c1ccccc1)Cc1ccccc1 [Example 49] | 101 to 1000 |
| N[C@@H](CC(=O)N1CCC[C@H]1CNC(=O)c1ccccc1)Cc1ccc(F)c(F)c1 [Example 50] | < 100 |
| COc1cccc(C(=O)NC[C@@H]2CCCN2C(=O)C[C@H](N)Cc2ccccc2F)c1 [Example 54, N-{1-[3-Amino-4-(2-fluoro-phenyl)-butyryl]-pyrrolidin-2-ylmethyl}-3-methoxy-benzamide] | < 100 |
| N[C@@H](CC(=O)N1CCC[C@H]1CNC(=O)c1ccccc1F)Cc1ccccc1F [Example 55] | < 100 |
| N[C@@H](CC(=O)N1CCC[C@H]1CNC(=O)c1cccc(F)c1)Cc1ccccc1F [Example 56] | < 100 |
| N[C@@H](CC(=O)N1CCC[C@H]1CNC(=O)c1ccc(F)cc1)Cc1ccccc1F [Example 57] | < 100 |
| N[C@@H](CC(=O)N1CCC[C@H]1CNC(=O)c1cccnc1)Cc1ccccc1F [Example 59] | < 100 |
| N[C@@H](CC(=O)N1CCC[C@H]1CNC(=O)c1ccncc1)Cc1ccccc1F [Example 60] | < 100 |
| CS(=O)(=O)c1ccc(C(=O)NC[C@@H]2CCCN2C(=O)C[C@H](N)Cc2ccccc2F)cc1 [Example 61] | < 100 |
| CS(=O)(=O)c1ccccc1C(=O)NC[C@@H]1CCCN1C(=O)C[C@H](N)Cc1ccccc1F [Example 62] | < 100 |
